Laboratory results: publication PMC9136617 (Acta Pharmaceutica Sinica. B, 2022)

Assays:
PPARα = target: T1, PPARα (Homo sapiens, UniProt Q07869); assay: SPR; format: binding
T1 sequence (Q07869 1-468): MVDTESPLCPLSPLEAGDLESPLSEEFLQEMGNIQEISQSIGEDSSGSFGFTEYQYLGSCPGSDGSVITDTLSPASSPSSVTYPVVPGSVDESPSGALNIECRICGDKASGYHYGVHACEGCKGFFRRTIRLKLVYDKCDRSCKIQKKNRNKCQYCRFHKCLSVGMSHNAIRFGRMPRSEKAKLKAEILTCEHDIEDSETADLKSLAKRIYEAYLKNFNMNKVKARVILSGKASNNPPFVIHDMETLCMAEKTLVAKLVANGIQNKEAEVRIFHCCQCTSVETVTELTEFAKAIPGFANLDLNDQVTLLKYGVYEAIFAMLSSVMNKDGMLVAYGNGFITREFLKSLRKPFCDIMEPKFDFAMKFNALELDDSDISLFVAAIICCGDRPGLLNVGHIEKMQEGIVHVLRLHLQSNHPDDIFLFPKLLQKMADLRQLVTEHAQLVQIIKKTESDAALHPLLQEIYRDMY

CYP2E1 = CYP2E1 (Homo sapiens, UniProt P05181); assay: incubation with recombinant human CYP2E1, metabolites by LC–MS/MS; format: biochemical
CYP2E1, sequence (P05181 whole entry): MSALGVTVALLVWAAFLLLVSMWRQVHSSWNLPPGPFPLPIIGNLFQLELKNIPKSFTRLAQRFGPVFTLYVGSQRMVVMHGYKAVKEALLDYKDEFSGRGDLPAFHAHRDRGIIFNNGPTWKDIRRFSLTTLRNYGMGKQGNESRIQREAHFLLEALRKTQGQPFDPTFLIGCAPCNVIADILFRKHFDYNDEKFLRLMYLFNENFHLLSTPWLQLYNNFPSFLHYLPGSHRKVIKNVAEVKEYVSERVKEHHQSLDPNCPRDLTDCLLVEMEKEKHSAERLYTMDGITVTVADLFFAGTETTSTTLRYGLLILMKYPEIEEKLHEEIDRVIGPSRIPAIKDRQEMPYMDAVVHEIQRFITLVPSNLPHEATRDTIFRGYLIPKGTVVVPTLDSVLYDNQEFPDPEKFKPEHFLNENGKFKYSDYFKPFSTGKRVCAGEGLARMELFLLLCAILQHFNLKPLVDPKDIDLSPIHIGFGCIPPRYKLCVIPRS

| Kd (PPARα) [µM] | Structure (SMILES) | incubation with recombinant human CYP2E1, metabolites by LC-MS/MS (CYP2E1) |
| --- | --- | --- |
| 16.1 | CCCCC/C=C\C/C=C\C/C=C\C/C=C\CCCC(=O)O [AA, arachidonic acid] | All the compounds were metabolized by recombinant CYP2E1 and their metabolites identified by LC–MS/MS |
| 14.3 | CC/C=C\C/C=C\C/C=C\C/C=C\C/C=C\C/C=C\CCC(=O)O [DHA, docosahexaenoic acid] | All the compounds were metabolized by recombinant CYP2E1 and their metabolites identified by LC–MS/MS |
| 23.8 | CCCCC/C=C\C/C=C\CCCCCCCC(=O)O [LCA, 9,12-linoleic acid] | metabolic sites on LCA by recombinant CYP2E1 protein were at C-6 to C-10, C-16, and C-17 |
